The values that follow come from BindingDB's records for doi:10.1021/jm501892g (Ensemble Therapeutics, 2015).

Experiment [1] has as its target Baculoviral IAP repeat-containing protein 2 (cIAP1, BIRC2, Homo sapiens) (UniProt Q13490). The experiment is described as follows: Inhibition of cIAP1 BIR3 (154 to 352 residues) (unknown origin) by fluoresceinated dimeric SMAC peptide based fluorescence polarization assay.
The target of experiment [2] is E3 ubiquitin-protein ligase XIAP (BIRC4, Homo sapiens) (UniProt P98170). The experiment is described as follows: Inhibition of XIAP BIR2-3 (125 to 356 residues) C202A/C213G mutant (unknown origin) fluoresceinated dimeric SMAC peptide based fluorescence polarization assay. For orientation: In fluorescence polarisation assays a small probe gives low polarisation when free and higher when bound to something large.
Chain of E3 ubiquitin-protein ligase XIAP (BIRC4, Homo sapiens) (P98170 whole entry, looked up, the tested form may be a part): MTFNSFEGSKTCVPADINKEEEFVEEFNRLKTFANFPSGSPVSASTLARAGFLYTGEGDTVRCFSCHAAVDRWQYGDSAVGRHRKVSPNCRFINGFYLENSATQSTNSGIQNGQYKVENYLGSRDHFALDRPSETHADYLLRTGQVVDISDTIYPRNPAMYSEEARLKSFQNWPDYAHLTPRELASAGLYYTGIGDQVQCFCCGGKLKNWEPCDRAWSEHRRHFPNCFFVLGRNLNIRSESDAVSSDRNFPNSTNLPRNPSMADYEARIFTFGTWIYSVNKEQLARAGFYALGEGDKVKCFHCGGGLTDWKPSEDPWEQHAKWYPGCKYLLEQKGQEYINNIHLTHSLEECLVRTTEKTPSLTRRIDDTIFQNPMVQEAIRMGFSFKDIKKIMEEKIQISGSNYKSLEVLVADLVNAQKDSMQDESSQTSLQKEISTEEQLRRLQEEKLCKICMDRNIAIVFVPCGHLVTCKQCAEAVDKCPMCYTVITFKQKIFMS

Chain of Baculoviral IAP repeat-containing protein 2 (cIAP1, BIRC2, Homo sapiens) (Q13490 whole entry, looked up, the tested form may be a part): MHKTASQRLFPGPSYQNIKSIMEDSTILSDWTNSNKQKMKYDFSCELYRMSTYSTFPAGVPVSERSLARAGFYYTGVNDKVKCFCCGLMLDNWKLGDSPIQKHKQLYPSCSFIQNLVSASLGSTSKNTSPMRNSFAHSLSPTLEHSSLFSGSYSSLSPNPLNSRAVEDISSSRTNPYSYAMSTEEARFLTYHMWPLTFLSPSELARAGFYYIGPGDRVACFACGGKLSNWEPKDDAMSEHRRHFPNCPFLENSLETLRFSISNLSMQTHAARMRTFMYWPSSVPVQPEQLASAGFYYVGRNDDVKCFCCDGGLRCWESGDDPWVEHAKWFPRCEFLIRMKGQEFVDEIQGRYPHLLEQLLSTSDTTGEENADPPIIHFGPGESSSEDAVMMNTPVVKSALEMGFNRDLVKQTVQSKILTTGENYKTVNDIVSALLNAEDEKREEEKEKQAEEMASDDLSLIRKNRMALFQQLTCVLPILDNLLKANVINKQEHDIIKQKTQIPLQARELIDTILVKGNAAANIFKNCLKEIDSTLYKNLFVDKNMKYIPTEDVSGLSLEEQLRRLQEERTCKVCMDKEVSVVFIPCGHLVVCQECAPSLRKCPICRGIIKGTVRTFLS

Broadly, the IC50 is the concentration that gives 50% inhibition. Take `CN[C@@H](C)C(=O)N[C@H](C(=O)N1C[C@@H]2C[C@H]1C(=O)N[C@@H](Cc1ccc3ccccc3c1)C(=O)N[C@H](C(=O)O)Cc1ccc(cc1)OCc1cn(nn1)[C@H]1C[C@@H](C(=O)N[C@@H](Cc3ccc4ccccc4c3)C(=O)N[C@H](C(=O)O)Cc3ccc(cc3)OCc3cn2nn3)N(C(=O)[C@@H](NC(=O)[C@H](C)NC)C(C)C)C1)C(C)C`: half-maximal inhibition in experiment [1] (IC50) required 17 nM. On the same count and under the same terms, for `CN[C@@H](C)C(=O)N[C@H](C(=O)N1C[C@@H]2C[C@H]1C(=O)N[C@@H](Cc1cccc3ccccc13)C(=O)N[C@H](C(=O)O)Cc1ccc(cc1)OCc1cn(nn1)[C@H]1C[C@@H](C(=O)N[C@@H](Cc3cccc4ccccc34)C(=O)N[C@H](C(=O)O)Cc3ccc(cc3)OCc3cn2nn3)N(C(=O)[C@@H](NC(=O)[C@H](C)NC)C(C)C)C1)C(C)C` the value was 17 nM.

As to `CN[C@@H](C)C(=O)N[C@H](C(=O)N1C[C@@H]2C[C@H]1C(=O)N[C@@H](Cc1ccccc1)C(=O)N[C@H](C(=O)O)Cc1ccc(cc1)OCc1cn(nn1)[C@H]1C[C@@H](C(=O)N[C@@H](Cc3ccccc3)C(=O)N[C@H](C(=O)O)Cc3ccc(cc3)OCc3cn2nn3)N(C(=O)[C@@H](NC(=O)[C@H](C)NC)C(C)C)C1)C(C)C`, the IC50 in experiment [1] came to 11 nM. Same read-out and setting: next, `CN[C@@H](C)C(=O)N[C@H](C(=O)N1C[C@@H]2C[C@H]1C(=O)N[C@@H](Cc1ccccc1)C(=O)N[C@H](C(=O)O)Cc1ccc(cc1)NC(=O)CCc1cn(nn1)[C@H]1C[C@@H](C(=O)N[C@@H](Cc3ccccc3)C(=O)N[C@H](C(=O)O)Cc3ccc(cc3)NC(=O)CCc3cn2nn3)N(C(=O)[C@@H](NC(=O)[C@H](C)NC)C(C)C)C1)C(C)C`: 8 nM. In the case of `CN[C@@H](C)C(=O)N[C@H](C(=O)N1C[C@@H]2C[C@H]1C(=O)N[C@@H](Cc1ccc3ccccc3c1)C(=O)N[C@H](C(=O)O)Cc1cn(nn1)[C@H]1C[C@@H](C(=O)N[C@@H](Cc3ccc4ccccc4c3)C(=O)N[C@H](C(=O)O)Cc3cn2nn3)N(C(=O)[C@@H](NC(=O)[C@H](C)NC)C(C)C)C1)C(C)C`, the IC50 came to 10 nM in experiment [1] and 9 nM in experiment [2]. What is called EC50 is the concentration that produces a half-maximal response. Low readings indicate an effect from little substance, high ones a need for much substance. Molecule `CN[C@@H](C)C(=O)N[C@H](C(=O)N1C[C@@H]2C[C@H]1C(=O)N[C@@H](Cc1ccccc1)C(=O)N[C@H](C(=O)O)Cc1ccc(cc1)NC(=O)CCc1cn2nn1)C(C)C` displayed an EC50 in experiment [1] of 36 nM. On the same count and under the same terms, for `CN[C@@H](C)C(=O)N[C@H](C(=O)N1C[C@@H]2C[C@H]1C(=O)N[C@@H](Cc1ccccc1)C(=O)N[C@H](C(=O)O)Cc1ccc(cc1)OCc1cn2nn1)C(C)C` the value was 20 nM.
